Here are results for seven compounds from patent publication US9580432B2, “Fused pyrimidine compound or salt thereof” (TAIHO PHARMACEUTICAL CO., LTD., priority 2013, dated 2017).

The target of experiment [1] is purified recombinant human BTK protein (Homo sapiens (Human), UniProt Q06187). In words: Measurement of BTK inhibitory activity (in vitro). Format: biochemical. The settings on record: FL-PEPTIDE 2 substrate 1 μM, ATP 45 μM, 40 minutes at 25° C. An excerpt:
With regard to the setting of the conditions for a method for measuring the inhibitory activity of a compound against BTK kinase activity in vitro, it is described in the consumable reagent supplies price list for LabChip (registered trademark) series of PerkinElmer, Inc. that FL-PEPTIDE 2 corresponds to a substrate peptide for the measurement of BTK kinase activity. Therefore, FL-PEPTIDE 2 was used as a substrate. The purified recombinant human BTK protein used in the test was purchased from Carna Biosciences, Inc.
With regard to the measurement of the inhibitory activity of the compounds, firstly, the compounds of the present invention were diluted stepwise with dimethyl sulfoxide (DMSO). Subsequently, BTK protein, a substrate peptide (final concentration was 1 μM), magnesium chloride (final concentration was 10 mM), ATP (final concentration was 45 μM), and a DMSO solution of the compounds of the present invention (final concentration of DMSO was 5%) were added to a buffer solution for kinase reaction (20 mM HEPES (pH 7.5), 2 mM dithiotheitol, 0.01% Triton X-100), and after the solution was incubated for 40 minutes at 25° C., a kinase reaction was carried out. The reaction was terminated by adding EDTA thereto in order to obtain a final concentration of 30 mM. Finally, a substrate peptide that was not phosphorylated (S) and a phosphorylated peptide (P) were separated and detected by microchannel capillary electrophoresis using a LabChip EZ Reader II (PerkinElmer, Inc.).

Experiment [2] concerns purified recombinant human EGFR protein / BTK. Description: BTK inhibition selectivity compared with EGFR kinase inhibitory activity (in vitro). Type of experiment: biochemical. The settings on record: EGFR assay ATP 1.5 μM. The protocol: 1) Measurement of BTK Inhibitory Activity
2) Measurement of EGFR Inhibitory Activity
Therefore, a biotinated peptide (biotin-[…]) was produced by referring to the amino acid sequence of the peptide. The purified recombinant human EGFR protein used in the test was purchased from Carna Biosciences, Inc.
With regard to the measurement of the inhibitory activity of the compounds, firstly, the compounds of the present invention were diluted stepwise with dimethyl sulfoxide (DMSO). […] The reaction was terminated by adding EDTA thereto in order to obtain a final concentration of 24 mM. Subsequently, a detection liquid containing Eu-labeled anti-phosphorylated tyrosine antibody PT66 (PerkinElmer, Inc.) and […] APC-SA (PerkinElmer, Inc.) was added thereto, and the system was left to stand for 2 hours or longer at room temperature.
3) BTK Inhibition Selectivity

Sequence of purified recombinant human BTK protein (Q06187 whole entry): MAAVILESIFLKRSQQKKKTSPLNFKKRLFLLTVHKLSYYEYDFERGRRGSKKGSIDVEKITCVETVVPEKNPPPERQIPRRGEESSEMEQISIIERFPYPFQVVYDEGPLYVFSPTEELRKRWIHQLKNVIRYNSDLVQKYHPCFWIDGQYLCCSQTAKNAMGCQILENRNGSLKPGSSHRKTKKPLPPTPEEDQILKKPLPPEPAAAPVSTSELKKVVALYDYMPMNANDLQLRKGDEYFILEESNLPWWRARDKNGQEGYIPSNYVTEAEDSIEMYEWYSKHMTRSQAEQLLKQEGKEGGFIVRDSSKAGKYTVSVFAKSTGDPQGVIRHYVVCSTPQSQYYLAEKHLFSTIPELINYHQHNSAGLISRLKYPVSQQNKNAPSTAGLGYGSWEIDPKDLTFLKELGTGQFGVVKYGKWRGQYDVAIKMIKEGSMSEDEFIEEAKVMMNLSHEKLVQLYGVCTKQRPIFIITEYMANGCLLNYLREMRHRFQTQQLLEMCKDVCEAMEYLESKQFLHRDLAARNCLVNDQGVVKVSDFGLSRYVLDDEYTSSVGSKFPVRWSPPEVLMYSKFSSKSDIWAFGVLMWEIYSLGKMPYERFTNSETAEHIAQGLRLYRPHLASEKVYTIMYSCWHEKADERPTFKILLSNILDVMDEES

With `Nc1ncnc2c1c(C(=O)Nc1nc3cc(-c4ccccc4)ccc3o1)cn2[C@@H]1CCN(C(=O)/C=C/CN2CCCCC2)C1` [Example 61, (R,E)-4-amino-N-(5-phenylbenzo[d]oxazol-2-yl)-7-(1-(4-(piperidin-1-yl)but-2-enoyl)pyrrolidin-3-yl) 7H-pyrrolo[2,3-d]pyrimidine-5-carboxamide], in experiment [1], the half-maximal inhibitory concentration (IC50) (in general, the concentration needed to halve the response being measured) was determined as 2.34 nM. Further, the “EGFR inhibitory activity IC50 value (nM)/BTK inhibitory activity IC50 value (nM)” value (“EGFR inhibitory activity IC50 value” below) in experiment [2] came out at 67.5.

Turning to `CCN(C)C/C=C/C(=O)N1CC[C@@H](n2cc(C(=O)Nc3nc4cc(-c5ccccc5)ccc4o3)c3c(N)ncnc32)C1` [Example 57, (R,E)-4-amino-N-(5-phenylbenzo[d]oxazol-2-yl)-7-(1-(4-(ethyl(methyl)amino)but-2-enoyl)pyrrolidin-3-yl) 7H-pyrrolo[2,3-d]pyrimidine-5-carboxamide], in experiment [1], the half-inhibitory concentration (IC50) is 1.51 nM. Further, the “EGFR inhibitory activity IC50 value” value in experiment [2] is on record as 19.3.

Turning to `CC(C)N(C)C/C=C/C(=O)N1CC[C@@H](n2cc(C(=O)Nc3nc4cc(-c5ccccc5)ccc4o3)c3c(N)ncnc32)C1` [Example 59, (R,E)-4-amino-N-(5-phenylbenzo[d]oxazol-2-yl)-7-(1-(4-(isopropyl(methyl)amino)but-2-enoyl)pyrrolidin-3-yl) 7H-pyrrolo[2,3-d]pyrimidine-5-carboxamide], the IC50 in experiment [1] came out at 1.51 nM. Also, the “EGFR inhibitory activity IC50 value” value in experiment [2] was 16.3.

For the compound `C/C=C/C(=O)N1CCC[C@@H](n2nc(C(=O)Nc3nc4cc(Cl)ccc4o3)c3c(N)ncnc32)C1` [Example 5, (R,E)-4-amino-N-(5-chlorobenzo[d]oxazol-2-yl)-1-(1-(but-2-enoyl)piperidin-3-yl)-1H-pyrazolo[3,4-d]pyrimidine-3-carboxamide], the half-inhibitory concentration (IC50) in experiment [1] was determined as 1.25 nM. Besides, the “EGFR inhibitory activity IC50 value” value in experiment [2] is 241.0.

Take `C=C(C)C(=O)N1CCC[C@@H](n2nc(C(=O)Nc3nc4cc(Cl)ccc4o3)c3c(N)ncnc32)C1` [Example 4, (R)-4-amino-N-(5-chlorobenzo[d]oxazol-2-yl)-1-(1-methacryloylpiperidin-3-yl)-1H-pyrazolo[3,4-d]pyrimidine-3-carboxamide]: the IC50 in experiment [1] stood at 0.888 nM. The “EGFR inhibitory activity IC50 value” value in experiment [2] stood at 929.2.

Take `Nc1ncnc2c1c(C(=O)Nc1nc3cc(Cl)ccc3o1)nn2[C@@H]1CCN(C(=O)/C=C/CN2CCCCC2)C1` [Example 37, (R,E)-4-amino-N-(5-chlorobenzo[d]oxazol-2-yl)-1-(1-(4-(piperidin-1-yl)but-2-enoyl)pyrrolidin-3-yl)-1H-pyrazolo[3,4-d]pyrimidine-3-carboxamide]: the IC50 in experiment [1] came out at 0.786 nM. In addition, the “EGFR inhibitory activity IC50 value” value in experiment [2] turned out to be 70.5.

On to `CN(C)C/C=C/C(=O)N1CC[C@@H](n2cc(C(=O)Nc3nc4cc(-c5ccccc5)ccc4o3)c3c(N)ncnc32)C1` [Example 56, (R,E)-4-amino-N-(5-phenylbenzo[d]oxazol-2-yl)-7-(1-(4-(dimethylamino)but-2-enoyl)pyrrolidin-3-yl) 7H-pyrrolo[2,3-d]pyrimidine-5-carboxamide], for which, in experiment [1], the half-maximal inhibitory concentration (IC50) amounted to 1.34 nM. Also, in experiment [2], the “EGFR inhibitory activity IC50 value” value came out at 17.6.
